According to patent US6881740B1, “Pharmaceutical agents” (Monash University, priority 1998, dated 2005):

Columns and labels:
[1] = molecular target: NMDA/polyamine sites (polyamine-sensitive [3H]-ifenprodil binding, rat cerebral cortex membranes) (Rattus norvegicus, UniProt P35439+Q00960); assay: NMDA/polyamine site [3H]-ifenprodil binding assay; settings: [3H]-ifenprodil 4 nM, rat cerebral cortex homogenate
Source text: Ifenprodil and eliprodil have been reported as antiischaemic agents (Gotti et al., 1988) and both compounds have been reported to associate with the polyamine sensitive site of the NMDA receptor complex (Carter et al., 1989 and 1990; Reynolds et al., 1989; and Robinson et al., 1990). […] These agents bind independently of the NMDA ion channel (Carter et al., 1991; Reynolds et al., 1989), appear not to cause behavioural effects (Carter et al., 1991), and may target specific heteromeric NMDA receptors (Williams, 1993; Nicola et al., 1994) uniquely distributed in forebrain regions (Standaert et al., 1994) affected in ischaemia and head trauma. […] Accordingly, compounds of the present invention are capable of binding to the NMDA receptor complex and providing a neuroprotective effect, or otherwise providing benefit in other conditions related to NMDA receptors.
Briefly, crude membrane suspensions containing 10% rat cerebral cortex were prepared in aqueous 50 mM Tris-HCl buffer (pH 7.4, 4° C.), using a Polytron homogeniser.
Nonspecific binding was determined using spermine (10 μM).
The sigma receptor ligand 3PPP(+)-3-(3-hydroxyphenyl)-N-propyl-piperidine (100 μM) was included in all tubes to block binding to sigma receptors. […] Filterpapers were collected, combined with scintillant and bound radioactivity determined using a Packard Scintillation counter.

[2] = test system: murine neocortical neurones; assay: NMDA-induced toxicity in neuronal cultures (MTT assay); type: cell-based; settings: Mus musculus, NMDA 600 μM, 1 h, compound added 30 min prior, cultures at 8 days in vitro, read-out: EC50 for inhibition of NMDA-induced toxicity
Experimental: Assay for NMDA-induced Toxicity in Neuronal Cultures
Neuronal cell death was assessed using a 3-(4,5-dimethylthiazol-2-yl)-2,5-diphenyltetrazoliurn bromide (MTT) assay in which NMDA-induced cellular changes are reflected as altered mitochondrial activity (Ankarcrona et al., 1995), as estimated by the formation of a formazan dye, which is measured spectrophotometrically. The procedure employed is essentially that of Roehlm et al. (1991) with minor modifications as previously described elsewhere in work from our laboratories Larm et al. (1996).
Primary cultures of murine neocortical neurones were established as described elsewhere (Larm et al., 1996). The effects of experimental compounds were tested in the cultures at 8 days in vitro. Exposure to NMDA (600 μM, 1 h) and other compounds was performed in an humidified incubator (5% CO2, 8% O2) at 37° C. in anti-oxidant free medium with compounds under evaluation being added 30 min prior to NMDA. For these conditions the culture medium was modified by omitting the following components: D,L- -tocopherol, D,L- -tocopherol acetate, catalase, superoxide dismutase and L-glutamine. Other details are described in Larm et al. (1996). Absorbence was read at 570 nm using a Ceres UV900 microplate reader. Control cultures were included in each experiment containing either vehicle alone or vehicle plus compound. […]

[3] = test system: cultured cerebellar granule cells; assay: Veratridine induced toxicity in neuronal cultures (MTT assay); settings: Mus musculus
Experimental: Veratridine Induced Toxicity in Neuronal Cultures
The cells were pre-incubated with drug for 30 minutes prior to a 60 minute exposure to veratridine (100 μM). Drug remained in the medium during exposure to veratridine. Cell viability was assessed at 18 hours by MTT assay.

NMDA/polyamine sites (polyamine-sensitive [3H]-ifenprodil binding, rat cerebral cortex membranes), sequence (Q00960 27-1482, other chains not shown): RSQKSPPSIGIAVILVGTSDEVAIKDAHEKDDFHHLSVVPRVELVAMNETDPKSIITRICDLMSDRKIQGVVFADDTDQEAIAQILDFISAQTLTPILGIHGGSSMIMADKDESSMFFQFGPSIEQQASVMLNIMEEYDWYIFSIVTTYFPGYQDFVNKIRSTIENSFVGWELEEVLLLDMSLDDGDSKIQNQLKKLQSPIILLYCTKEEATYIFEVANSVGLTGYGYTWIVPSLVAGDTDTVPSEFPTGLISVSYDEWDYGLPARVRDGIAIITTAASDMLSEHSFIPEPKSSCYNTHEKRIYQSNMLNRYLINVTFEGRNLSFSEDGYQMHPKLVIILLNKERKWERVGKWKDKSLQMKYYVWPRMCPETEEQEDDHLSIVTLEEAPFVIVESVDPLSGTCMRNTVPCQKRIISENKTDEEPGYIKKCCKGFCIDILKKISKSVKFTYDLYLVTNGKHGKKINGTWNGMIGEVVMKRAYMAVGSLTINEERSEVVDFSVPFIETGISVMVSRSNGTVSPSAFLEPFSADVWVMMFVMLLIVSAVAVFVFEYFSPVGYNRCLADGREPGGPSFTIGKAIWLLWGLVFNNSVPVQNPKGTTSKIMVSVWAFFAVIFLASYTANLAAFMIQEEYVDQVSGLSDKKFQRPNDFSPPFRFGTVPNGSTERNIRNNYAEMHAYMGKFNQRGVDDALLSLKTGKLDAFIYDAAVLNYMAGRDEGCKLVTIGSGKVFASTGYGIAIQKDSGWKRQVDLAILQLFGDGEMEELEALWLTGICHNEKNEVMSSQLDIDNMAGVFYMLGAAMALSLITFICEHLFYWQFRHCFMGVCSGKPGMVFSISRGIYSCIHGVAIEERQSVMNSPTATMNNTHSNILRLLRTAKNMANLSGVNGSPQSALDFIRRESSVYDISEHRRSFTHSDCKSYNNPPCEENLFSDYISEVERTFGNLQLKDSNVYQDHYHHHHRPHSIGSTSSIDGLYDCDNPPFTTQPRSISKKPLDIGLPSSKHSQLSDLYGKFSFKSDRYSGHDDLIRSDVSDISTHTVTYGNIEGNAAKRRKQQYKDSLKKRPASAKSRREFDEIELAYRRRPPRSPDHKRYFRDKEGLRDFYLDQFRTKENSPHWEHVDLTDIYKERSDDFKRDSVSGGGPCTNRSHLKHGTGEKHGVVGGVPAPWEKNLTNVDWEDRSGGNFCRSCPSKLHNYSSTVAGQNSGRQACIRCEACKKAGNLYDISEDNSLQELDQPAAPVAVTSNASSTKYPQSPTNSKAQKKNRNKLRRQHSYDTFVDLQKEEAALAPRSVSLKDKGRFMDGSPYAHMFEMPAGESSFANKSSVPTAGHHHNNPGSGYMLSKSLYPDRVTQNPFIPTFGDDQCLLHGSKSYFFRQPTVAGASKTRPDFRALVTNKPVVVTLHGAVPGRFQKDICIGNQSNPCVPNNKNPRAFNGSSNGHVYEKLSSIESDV

`OC(Cc1cc(N2CCCC2)nc(N2CCCC2)n1)c1cccc(OC(F)(F)F)c1` (stereo not shown) [Compound 17, 6-[2-hydroxy-2-(3-trifluoromethoxyphenyl)ethyl]-2,4-di-N-pyrrolidinylpyrimidine] gave an IC50 ([1]; 2 h at 4° C., 3PPP 100 μM to block sigma sites) of 4330 ± 1560 nM, a Ki ([1]; competition curves analysed with Radlig) of 1400 ± 47 nM and an EC50 [2] of 1700 nM. It also gave an EC50 [3] of 1700 nM.
